# Results published in patent publication US20230331675A1, “AROMATIC ETHYLENE COMPOUND AND PREPARATION METHOD THEREFOR, AND INTERMEDIATE, PHARMACEUTICAL COMPOSITION, AND APPLICATION THEREOF” (GUANGZHOU MAXINOVEL PHARMACEUTICALS CO., LTD., priority 2020, published 2023).
# Molecular target: PD-1/PD-L1 (Homo sapiens (Human), UniProt Q9NZQ7)
# Experiment: Homogeneous time-resolved fluorescence (HTRF) binding assay
# Conditions: CisBio kit, read-out: IC50 of compounds binding to PD-1/PD-L1
# Source text: Effect embodiment 1: Homogenouse time-resolved fluorescence
# Homogeneous time-resolved fluorescence (HTRF) binding assay was used to determine the binding ability of the compound of the present disclosure to PD-1/PD-L1.
# The purchased kit (CisBio, #64CUS000C-1) contained reagents required for assays such as PD-1, PD-L1, anti-tag1-Eu, Anti-tag2-XL665, dilute buffer, and detection buffer.
# 1. The compound was formulated to 10 concentrations with a 3-fold gradient with 100% DMSO.
# 2. The DMSO solution of the compound was added to the dilute buffer, mixed thoroughly, then transferred to a 96-well plate.
# 3. PD-L1 was diluted with dilute buffer, then added to the above 96-well plate.
# 4. PD-1 was diluted with dilute buffer and added to the above 96-well plate, which was then incubated at room temperature for 30 minutes.
# 5. A portion of anti-tag1-Eu and a portion of anti-tag2-XL665 were added to the detection buffer, mixed thoroughly and transferred to the above 96-well plate.
# 6. The mixture in the above 96-well plate was incubated at room temperature for 1 to 24 hours.
# 7. HTRF values were read with Envision.
# Sequence of PD-1/PD-L1 (Q9NZQ7 19-238): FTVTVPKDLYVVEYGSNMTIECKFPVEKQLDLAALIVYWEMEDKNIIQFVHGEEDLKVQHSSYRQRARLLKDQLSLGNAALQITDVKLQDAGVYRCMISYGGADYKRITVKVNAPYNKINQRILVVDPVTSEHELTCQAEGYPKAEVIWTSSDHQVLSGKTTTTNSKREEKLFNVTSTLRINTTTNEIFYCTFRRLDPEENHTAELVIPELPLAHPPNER
row,Compound,IC50 [nM]
1,"[2H]c1c([2H])c([2H])c(-c2cccc(/C=C/c3cc(OC)c(CN4CCCC[C@H]4C(=O)O)cc3C(F)(F)F)c2C)c([2H])c1[2H] [Compound 61, (S,E)-1-(2-Methoxy-4-(2-(2-methyl-[1,1′-biphenyl]-3-yl-2′,3′,4′,5′,6′-d5)vinyl)-5-trifluoromethylbenzyl)piperidine-2-carboxylic acid]",0.73
2,"Cc1cc(CN2CCCC[C@H]2C(=O)O)c(OCC#N)cc1/C=C/c1cccc(-c2ccccc2)c1C#N [Compound 48, (S,E)-1-(4-(2-(2-Cyano-[1,1′-biphenyl]-3-yl)vinyl)-2-(cyanomethoxy)-5-methylbenzyl)piperidine-2-carboxylic acid]",8
3,"Cc1cc(OCCO)c(CN2CCOC[C@H]2C(=O)O)cc1/C=C/c1cccc(-c2ccccc2)c1C#N [Compound 42, (S,E)-4-(5-(2-(2-Cyano-[1,1′-biphenyl]-3-yl)vinyl)-2-(2-hydroxyethoxy)-4-methylbenzyl)morpholine-3-carboxylic acid]",706
4,"COCCOc1cc(/C=C/c2cccc(-c3ccccc3)c2C#N)c(CN2CCOC[C@H]2C(=O)O)cc1Cl [Compound 34, (S,E)-4-(5-Chloro-2-(2-(2-cyano-[1,1′-biphenyl]-3-yl)vinyl)-4-(2-methoxyethoxy)benzyl)morpholine-3-carboxylic acid]",> 10000
5,"Cc1cc(OCCCCC#N)c(CN2CCOC[C@H]2C(=O)O)cc1/C=C/c1cccc(-c2ccccc2)c1C#N [Compound 40, (S,E)-4-(5-(2-(2-Cyano-[1,1′-biphenyl]-3-yl)vinyl)-2-(4-cyanobutoxy)-4-methylbenzyl)morpholine-3-carboxylic acid]",1440
6,"Cc1cc(/C=C/c2cccc(-c3ccccc3)c2C#N)c(Cl)cc1CN1CCCC[C@H]1C(=O)O [Compound 8, (S,E)-1-(5-Chloro-4-(2-(2-cyano-[1,1′-biphenyl]-3-yl)vinyl)-2-methylbenzyl)piperidine-2-carboxylic acid]",1.6
7,"COCCOc1cc(C)c(/C=C/c2cccc(-c3ccccc3)c2C#N)cc1CN1CCOC[C@H]1C(=O)O [Compound 44, (S,E)-4-(5-(2-(2-Cyano-[1,1′-biphenyl]-3-yl)vinyl)-2-(2-methoxyethoxy)-4-methylbenzyl)morpholine-3-carboxylic acid]",265
8,"N#Cc1c(/C=C/c2cc(CO)c(CN3CCCC[C@H]3C(=O)O)cc2C(F)(F)F)cccc1-c1ccccc1 [Compound 20, (S,E)-1-(4-(2-(2-Cyano-[1,1′-biphenyl]-3-yl)vinyl)-2-hydroxymethyl-5-trifluoromethylbenzyl)piperidine-2-carboxylic acid]",3.7
9,"COc1cc(/C=C/c2cccc(-c3ccccc3)c2C)c(C(F)(F)F)cc1CN1CCCC[C@H]1C(=O)O [Compound 6, (S,E)-1-(2-Methoxy-4-(2-(2-methyl-[1,1′-biphenyl]-3-yl)vinyl)-5-trifluoromethylbenzyl)piperidine-2-carboxylic acid]",1.6
10,"Cc1cc(CN2CCCC[C@H]2C(=O)O)c(OCCCF)cc1/C=C/c1cccc(-c2ccccc2)c1C [Compound 84, (S,E)-1-(2-(3-Fluoropropoxy)-5-methyl-4-(2-(2-methyl-[1,1′-biphenyl]-3-yl)vinyl)benzyl)piperidine-2-carboxylic acid]",8.03
11,"[2H]C([2H])([2H])Oc1cc(/C=C/c2cccc(-c3ccccc3)c2C#N)c(CN2CCCC[C@H]2C(=O)O)cc1Cl [Compound 52, (S,E)-1-(5-Chloro-2-(2-(2-cyano-[1,1′-biphenyl]-3-yl)vinyl)-4-(methoxy-d3)benzyl)piperidine-2-carboxylic acid]",> 10000
12,Cc1c(/C=C/c2cc(OCc3ccc(I)cc3)c(CN3CCCC[C@H]3C(=O)O)cc2C(F)(F)F)cccc1-c1ccccc1 [Compound 78],65.5
13,"COc1cc(/C(Br)=C/c2cccc(-c3ccccc3)c2C)c(C(F)(F)F)cc1CNCCO [Compound 66, (Z)-2-((4-(1-Bromo-2-(2-methyl-[1,1′-biphenyl]-3-yl)vinyl)-2-methoxy-5-trifluoromethylbenzyl)amino)-1-ethanol]",41.7
14,"Cc1cc(CN2CCOC[C@H]2C(=O)O)c(OCCO)cc1/C=C/c1cccc(-c2ccccc2)c1C#N [Compound 30, (S,E)-4-(4-(2-(2-Cyano-[1,1′-biphenyl]-3-yl)vinyl)-2-(2-hydroxyethoxy)-5-methylbenzyl)morpholine-3-carboxylic acid]",7.7
15,"Cc1c(/C=C/c2cc(OCCCCF)c(CN3CCCC[C@H]3C(=O)O)cc2C(F)(F)F)cccc1-c1ccccc1 [Compound 85, (S,E)-1-(2-(4-Fluorobutoxy)-4-(2-(2-methyl-[1,1′-biphenyl]-3-yl)vinyl)-5-(trifluoromethyl)benzyl)piperidine-2-carboxylic acid]",4.34
16,"Cc1c(/C=C/c2cc(OCc3cncc(I)c3)c(CN3CCCC[C@H]3C(=O)O)cc2C(F)(F)F)cccc1-c1ccccc1 [Compound 82, (S,E)-1-(2-((5-Iodopyridin-3-yl)methoxy)-4-(2-(2-methyl-[1,1′-biphenyl]-3-yl)vinyl)-5-(trifluoromethyl)benzyl)piperidine-2-carboxylic acid]",1.85

row,Compound,IC50 [nM]
1,"(S,E)-1-(2-((3-Iodobenzyloxy)-5-methyl-4-(2-(2-methyl-[1,1′-biphenyl]-3-yl)vinyl)benzyl)piperidine-2-carboxylic acid [Compound 75]",28.4
2,"COc1cc(/C=C/c2cccc(-c3ccccc3)c2CF)c(C(F)(F)F)cc1CNCCO [Compound 74, (E)-2-((4-(2-(2-Fluoromethyl-[1,1′-biphenyl]-3-yl)vinyl)-2-methoxy-5-trifluoromethylbenzyl)amino)-1-ethanol]",7.09
3,"COCCOc1cc(/C=C/c2cccc(-c3ccccc3)c2C#N)c(CN2CCCC[C@H]2C(=O)O)cc1Cl [Compound 33, (S,E)-1-(5-Chloro-2-(2-(2-cyano-[1,1′-biphenyl]-3-yl)vinyl)-4-(2-methoxyethoxy)benzyl)piperidine-2-carboxylic acid]",> 10000
4,"COc1cc(/C=C/c2cccc(-c3ccccc3)c2C#N)c(C(F)(F)F)cc1CN1CCCC[C@H]1C(=O)O [Compound 7, (S,E)-1-(4-(2-(2-Cyano-[1,1′-biphenyl]-3-yl)vinyl)-2-methoxy-5-trifluoromethylbenzyl)piperidine-2-carboxylic acid]",1.9
5,"COc1cc(/C=C/c2cccc(-c3ccccc3)c2Cl)c(C(F)(F)F)cc1CN1CCCC[C@H]1C(=O)O [Compound 71, (S,E)-1-(4-(2-(2-Chloro-[1,1′-biphenyl]-3-yl)vinyl)-2-methoxy-5-trifluoromethylbenzyl)piperidine-2-carboxylic acid]",0.68
6,"N#Cc1c(/C=C/c2ccc(CN3CCCC[C@H]3C(=O)O)cc2Cl)cccc1-c1ccccc1 [Compound 2, (S,E)-1-(3-Chloro-4-(2-(2-cyano-[1,1′-biphenyl]-3-yl)vinyl)benzyl)piperidine-2-carboxylic acid]",26.3
7,"Cc1cc(/C=C/c2cccc(-c3ccccc3)c2C)c(Cl)cc1CN1CCCC[C@H]1C(=O)O [Compound 5, (S,E)-1-(5-Chloro-2-methyl-4-(2-(2-methyl-[1,1′-biphenyl]-3-yl)vinyl)benzyl)piperidine-2-carboxylic acid]",6.5
8,"N#Cc1c(/C=C/c2cc(CO)c(CN3CCNC[C@H]3C(=O)O)cc2C(F)(F)F)cccc1-c1ccccc1 [Compound 28, (S,E)-1-(4-(2-(2-Cyano-[1,1′-biphenyl]-3-yl)vinyl)-2-hydroxymethyl-5-trifluoromethylbenzyl)piperazine-2-carboxylic acid]",135
9,CS(=O)(=O)CCCOc1cc(/C=C/c2cccc(-c3ccccc3)c2C#N)c(CN2CCOC[C@H]2C(=O)O)cc1Cl [Compound 37],> 10000
10,"COCCOc1cc(/C=C/c2cccc(-c3ccccc3)c2C#N)c(C)cc1CN1CCOC[C@H]1C(=O)O [Compound 25, (S,E)-4-(4-(2-(2-Cyano-[1,1′-biphenyl]-3-yl)vinyl)-2-(2-methoxyethoxy)-5-methylbenzyl)morpholine-3-carboxylic acid]",9.1
11,"Cc1c(/C=C/c2cc(OCCCF)c(CN3CCCC[C@H]3C(=O)O)cc2C(F)(F)F)cccc1-c1ccccc1 [Compound 86, (S,E)-1-(2-(3-Fluoropropoxy)-4-(2-(2-methyl-[1,1′-biphenyl]-3-yl)vinyl)-5-(trifluoromethyl)benzyl)piperidine-2-carboxylic acid]",3.58
12,[2H]C([2H])([2H])c1c(/C=C/c2cc(CN[C@@](C)(CO)C(=O)O)ccc2C(F)(F)F)cccc1-c1ccccc1 [Compound 55],29.5
13,"COc1cc(/C=C/c2cccc(-c3ccccc3)c2C)c(Cl)cc1CN1CCCC[C@H]1C(=O)O [Compound 58, (S,E)-1-(5-Chloro-2-methoxy-4-(2-(2-methyl-[1,1′-biphenyl]-3-yl)vinyl)benzyl)piperidine-2-carboxylic acid]",6.8
14,"Cc1cc(CN2CCCC[C@H]2C(=O)O)c(OCCCCF)cc1/C=C/c1cccc(-c2ccccc2)c1C [Compound 83, (S,E)-1-(2-(4-Fluorobutoxy)-5-methyl-4-(2-(2-methyl-[1,1′-biphenyl]-3-yl)vinyl)benzyl)piperidine-2-carboxylic acid]",6.99
15,"Cc1cc(CN[C@@](C)(CO)C(=O)O)c(C)cc1/C=C/c1cccc(-c2ccccc2)c1C#N [Compound 12, (S,E)-2-((4-(2-(2-Cyano-[1,1′-biphenyl]-3-yl)vinyl)-2,5-dimethylbenzyl)amino)-3-hydroxy-2-methylpropionic acid]",3.4
